The source made the active and inactive calls. No cut-off for these calls is given here.
Columns and labels:
[1] = test system: HCT-116; test: Antiproliferative activity against human HCT116 cells after 72 hrs by sulforhodamine B assay; type: functional, cell-based; conditions: HCT-116, 72 h
[2] = test system: SK-HEP1; test: Antiproliferative activity against human SKHEP1 cells after 72 hrs by sulforhodamine B assay; type: functional, cell-based; conditions: SK-HEP1, 72 h
[3] = test system: MDA-MB-231; test: Antiproliferative activity against human MDA-MB-231 cells after 72 hrs by sulforhodamine B assay; type: functional, cell-based; conditions: MDA-MB-231, 72 h
[4] = test system: SNU-638; test: Antiproliferative activity against human SNU638 cells after 72 hrs by sulforhodamine B assay; type: functional, cell-based; conditions: SNU-638, 72 h
[5] = test system: A549; test: Antiproliferative activity against human A549 cells after 72 hrs by sulforhodamine B assay; type: functional, cell-based; conditions: A549, 72 h
[6] = test system: MCF7; test: Antiproliferative activity against human MCF7 cells after 72 hrs by sulforhodamine B assay; type: functional, cell-based; conditions: MCF7, 72 h
[7] = test system: MRC5; test: Antiproliferative activity against human MRC5 cells after 72 hrs by sulforhodamine B assay; type: cell-based; conditions: MRC5, 72 h
[8] = test system: HEK293; test: Antiproliferative activity against HEK293 cells after 72 hrs by sulforhodamine B assay; type: cell-based; conditions: Homo sapiens, HEK293, 72 h
[9] = target: PI3-kinase p110-alpha/p85-alpha (Homo sapiens, UniProt P42336); test: Inhibition of recombinant N-terminal His6-tagged full length PI3K p110alpha (unknown origin)/recombinant untagged full length p85alpha (unknown origin) expressed in baculovirus infected Sf21 insect cells by ELISA
[10] = target: PI3K p110 beta/p85 alpha (Homo sapiens, UniProt P42338); test: Inhibition of N-terminal His6-tagged recombinant full-length PI3Kbeta (unknown origin)/untagged recombinant full length p85alpha expressed in baculovirus infected Sf21 insect cells by ELISA
[11] = target: Phosphatidylinositol 4,5-bisphosphate 3-kinase catalytic subunit gamma isoform (Homo sapiens, UniProt P48736); test: Inhibition of recombinant human N-terminal His6-tagged full length PI3K p120gamma expressed in baculovirus infected Sf21 insect cells by ELISA
[12] = target: PI3-kinase p110-delta/p85-alpha (Homo sapiens, UniProt O00329); test: Inhibition of recombinant N-terminal full length human PI3K p110delta/recombinant untagged full length human p85alpha expressed in baculovirus infected Sf21 insect cells by ELISA
[13] = target: Phosphatidylinositol 4,5-bisphosphate 3-kinase catalytic subunit alpha isoform (Homo sapiens) (UniProt P42336); test: Inhibition of PI3Kalpha phosphorylation in human HCT116 cells at 0.5 to 2 uM after 24 hrs by Western blot analysis; type: cell-based
[14] = target: Phosphatidylinositol 4,5-bisphosphate 3-kinase catalytic subunit alpha isoform (Homo sapiens) (UniProt P42336); test: Inhibition of PI3Kalpha in human HCT116 cells assessed as reduction in Akt phosphorylation at Ser473 residues at 0.5 to 2 uM after 24 hrs by Western blot analysis; type: cell-based
[15] = target: Phosphatidylinositol 4,5-bisphosphate 3-kinase catalytic subunit alpha isoform (Homo sapiens) (UniProt P42336); test: Inhibition of PI3Kalpha in human HCT116 cells assessed as reduction in GSK3beta phosphorylation at 0.5 to 2 uM after 24 hrs by Western blot analysis; type: cell-based
[16] = target: Phosphatidylinositol 4,5-bisphosphate 3-kinase catalytic subunit alpha isoform (Homo sapiens) (UniProt P42336); test: Inhibition of PI3Kalpha in human HCT116 cells assessed as reduction in Akt expression level at Ser473 residues at 1 uM after 8 hrs by DAPI staining based confocal microscopy; type: cell-based
[17] = test system: HCT-116; test: Cell cycle arrest in human HCT116 cells assessed as accumulation at subG1 phase at 0.5 uM after 24 hrs by propidium iodide staining based flow cytometry (reference value: 2.25%); type: functional
[18] = test system: HCT-116; test: Cell cycle arrest in human HCT116 cells assessed as accumulation at G0/G1 phase at 0.5 uM after 24 hrs by propidium iodide staining based flow cytometry (reference value: 44.01%); type: functional
[19] = test system: HCT-116; test: Cell cycle arrest in human HCT116 cells assessed as accumulation at S phase at 0.5 uM after 24 hrs by propidium iodide staining based flow cytometry (reference value: 11.36%); type: functional
[20] = test system: HCT-116; test: Cell cycle arrest in human HCT116 cells assessed as accumulation at G2/M phase at 0.5 uM after 24 hrs by propidium iodide staining based flow cytometry (reference value: 22.24%); type: functional
[21] = test system: HCT-116; test: Cell cycle arrest in human HCT116 cells assessed as accumulation at subG1 phase at 1 uM after 24 hrs by propidium iodide staining based flow cytometry (reference value: 2.25%); type: functional
[22] = test system: HCT-116; test: Cell cycle arrest in human HCT116 cells assessed as accumulation at G0/G1 phase at 1 uM after 24 hrs by propidium iodide staining based flow cytometry (reference value: 44.01%); type: functional
[23] = test system: HCT-116; test: Cell cycle arrest in human HCT116 cells assessed as accumulation at S phase at 1 uM after 24 hrs by propidium iodide staining based flow cytometry (reference value: 11.36%); type: functional
[24] = test system: HCT-116; test: Cell cycle arrest in human HCT116 cells assessed as accumulation at G2/M phase at 1 uM after 24 hrs by propidium iodide staining based flow cytometry (reference value: 22.24%); type: functional
[25] = test system: HCT-116; test: Cell cycle arrest in human HCT116 cells assessed as accumulation at subG1 phase at 2 uM after 24 hrs by propidium iodide staining based flow cytometry (reference value: 2.25%); type: functional
[26] = test system: HCT-116; test: Cell cycle arrest in human HCT116 cells assessed as accumulation at G0/G1 phase at 2 uM after 24 hrs by propidium iodide staining based flow cytometry (reference value: 44.01%); type: functional
[27] = test system: HCT-116; test: Cell cycle arrest in human HCT116 cells assessed as accumulation at S phase at 2 uM after 24 hrs by propidium iodide staining based flow cytometry (reference value: 11.36%); type: functional
[28] = test system: HCT-116; test: Cell cycle arrest in human HCT116 cells assessed as accumulation at G2/M phase at 2 uM after 24 hrs by propidium iodide staining based flow cytometry (reference value: 22.24%); type: functional
[29] = test system: HCT-116; test: Induction of apoptosis in human HCT116 cells assessed as viable cells at 1 uM after 48 hrs by Annexin V-FITC/propidium iodide staining based flow cytometry (reference value: 94.06%); type: functional; conditions: HCT-116, 48 h, read-out: Activity
[30] = test system: HCT-116; test: Induction of apoptosis in human HCT116 cells assessed as early apoptotic cells at 1 uM after 48 hrs by Annexin V-FITC/propidium iodide staining based flow cytometry (reference value: 3.72%); type: functional
[31] = test system: HCT-116; test: Induction of apoptosis in human HCT116 cells assessed as late apoptotic cells at 1 uM after 48 hrs by Annexin V-FITC/propidium iodide staining based flow cytometry (reference value: 1.43%); type: functional
[32] = test system: HCT-116; test: Induction of apoptosis in human HCT116 cells assessed as necrotic cells at 1 uM after 48 hrs by Annexin V-FITC/propidium iodide staining based flow cytometry (reference value: 0.79%); type: functional
[33] = test system: HCT-116; test: Induction of apoptosis in human HCT116 cells assessed as viable cells at 2 uM after 48 hrs by Annexin V-FITC/propidium iodide staining based flow cytometry (reference value: 94.06%); type: functional; conditions: HCT-116, 48 h, read-out: Activity
[34] = test system: HCT-116; test: Induction of apoptosis in human HCT116 cells assessed as early apoptotic cells at 2 uM after 48 hrs by Annexin V-FITC/propidium iodide staining based flow cytometry (reference value: 3.72%); type: functional
[35] = test system: HCT-116; test: Induction of apoptosis in human HCT116 cells assessed as late apoptotic cells at 2 uM after 48 hrs by Annexin V-FITC/propidium iodide staining based flow cytometry (reference value: 1.43%); type: functional
[36] = test system: HCT-116; test: Induction of apoptosis in human HCT116 cells assessed as necrotic cells at 2 uM after 48 hrs by Annexin V-FITC/propidium iodide staining based flow cytometry (reference value: 0.79%); type: functional
[37] = test system: HCT-116; test: Induction of apoptosis in human HCT116 cells assessed as viable cells at 4 uM after 48 hrs by Annexin V-FITC/propidium iodide staining based flow cytometry (reference value: 94.06%); type: functional; conditions: HCT-116, 48 h, read-out: Activity
[38] = test system: HCT-116; test: Induction of apoptosis in human HCT116 cells assessed as early apoptotic cells at 4 uM after 48 hrs by Annexin V-FITC/propidium iodide staining based flow cytometry (reference value: 3.72%); type: functional
[39] = test system: HCT-116; test: Induction of apoptosis in human HCT116 cells assessed as late apoptotic cells at 4 uM after 48 hrs by Annexin V-FITC/propidium iodide staining based flow cytometry (reference value: 1.43%); type: functional
[40] = test system: HCT-116; test: Induction of apoptosis in human HCT116 cells assessed as necrotic cells at 4 uM after 48 hrs by Annexin V-FITC/propidium iodide staining based flow cytometry (reference value: 0.79%); type: functional
[41] = test system: HCT-116; test: Induction of apoptosis in human HCT116 cells assessed as increase in cleaved caspase 9 level at 4 uM after 48 hrs by Western blot analysis; type: functional, cell-based
[42] = test system: HCT-116; test: Induction of apoptosis in human HCT116 cells assessed as increase in cleaved caspase 3 level at 4 uM after 48 hrs by Western blot analysis; type: functional, cell-based
[43] = test system: HCT-116; test: Induction of apoptosis in human HCT116 cells assessed as increase in cleaved PARP level at 4 uM after 48 hrs by Western blot analysis; type: functional, cell-based
[44] = target: Phosphatidylinositol 4,5-bisphosphate 3-kinase catalytic subunit alpha isoform (Homo sapiens) (UniProt P42336); test: Inhibition of PI3Kalpha in human HCT116 cells assessed as reduction in Akt phosphorylation at Ser473 residues after 24 hrs by Western blot analysis; type: cell-based
[45] = target: Phosphatidylinositol 4,5-bisphosphate 3-kinase catalytic subunit alpha isoform (Homo sapiens) (UniProt P42336); test: Inhibition of PI3Kalpha in human HCT116 cells assessed as reduction in GSK3beta phosphorylation after 24 hrs by Western blot analysis; type: cell-based
[46] = test system: HCT-116; test: Induction of apoptosis in human HCT116 cells assessed as decrease in Bcl-2 level at 1 to 4 uM after 48 hrs by Western blot analysis; type: functional, cell-based
[47] = test system: HCT-116; test: Induction of apoptosis in human HCT116 cells assessed as increase in Bax level at 1 to 4 uM after 48 hrs by Western blot analysis; type: functional, cell-based
[48] = test system: HCT-116; test: Induction of apoptosis in human HCT116 cells assessed as increase in cytochrome C level at 1 to 4 uM after 48 hrs by Western blot analysis; type: functional, cell-based
[49] = test system: HCT-116; test: Upregulation of p27 protein expression in human HCT116 cells at 0.5 to 2 uM after 24 hrs by Western blot analysis; type: functional, cell-based
[50] = test system: HCT-116; test: Downregulation of cyclin D1 protein expression in human HCT116 cells at 0.5 to 2 uM after 24 hrs by Western blot analysis; type: functional, cell-based
[51] = test system: HCT-116; test: Downregulation of CDK2 protein expression in human HCT116 cells at 0.5 to 2 uM after 24 hrs by Western blot analysis; type: functional, cell-based

Sequence of Phosphatidylinositol 4,5-bisphosphate 3-kinase catalytic subunit alpha isoform (Homo sapiens) (P42336 whole entry, canonical isoform): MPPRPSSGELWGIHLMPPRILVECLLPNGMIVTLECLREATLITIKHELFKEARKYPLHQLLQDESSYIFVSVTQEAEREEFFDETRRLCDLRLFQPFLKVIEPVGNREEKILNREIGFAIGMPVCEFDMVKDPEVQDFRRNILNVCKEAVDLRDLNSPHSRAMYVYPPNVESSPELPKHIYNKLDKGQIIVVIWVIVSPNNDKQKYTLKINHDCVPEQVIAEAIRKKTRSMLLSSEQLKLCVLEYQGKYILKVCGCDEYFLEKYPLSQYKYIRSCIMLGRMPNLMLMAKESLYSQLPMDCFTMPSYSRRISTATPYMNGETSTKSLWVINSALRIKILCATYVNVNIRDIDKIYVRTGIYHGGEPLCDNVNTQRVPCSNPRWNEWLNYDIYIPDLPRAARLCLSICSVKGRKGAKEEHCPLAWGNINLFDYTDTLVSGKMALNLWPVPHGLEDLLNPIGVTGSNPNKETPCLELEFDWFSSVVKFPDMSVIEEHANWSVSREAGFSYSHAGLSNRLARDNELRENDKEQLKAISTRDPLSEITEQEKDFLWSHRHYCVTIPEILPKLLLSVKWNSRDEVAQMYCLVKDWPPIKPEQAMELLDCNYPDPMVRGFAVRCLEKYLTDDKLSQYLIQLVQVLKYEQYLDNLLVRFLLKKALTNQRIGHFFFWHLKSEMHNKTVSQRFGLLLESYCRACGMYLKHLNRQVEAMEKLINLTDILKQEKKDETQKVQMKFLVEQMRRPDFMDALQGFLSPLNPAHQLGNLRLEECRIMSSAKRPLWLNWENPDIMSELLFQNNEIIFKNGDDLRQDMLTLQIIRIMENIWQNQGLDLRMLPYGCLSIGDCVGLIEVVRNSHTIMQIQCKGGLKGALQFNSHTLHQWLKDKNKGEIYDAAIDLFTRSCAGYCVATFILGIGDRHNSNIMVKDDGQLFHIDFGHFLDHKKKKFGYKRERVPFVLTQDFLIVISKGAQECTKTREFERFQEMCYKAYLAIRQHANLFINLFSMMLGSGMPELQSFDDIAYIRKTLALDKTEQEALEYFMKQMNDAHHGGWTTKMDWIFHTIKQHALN
Sequence of PI3-kinase p110-alpha/p85-alpha (P27986 whole entry): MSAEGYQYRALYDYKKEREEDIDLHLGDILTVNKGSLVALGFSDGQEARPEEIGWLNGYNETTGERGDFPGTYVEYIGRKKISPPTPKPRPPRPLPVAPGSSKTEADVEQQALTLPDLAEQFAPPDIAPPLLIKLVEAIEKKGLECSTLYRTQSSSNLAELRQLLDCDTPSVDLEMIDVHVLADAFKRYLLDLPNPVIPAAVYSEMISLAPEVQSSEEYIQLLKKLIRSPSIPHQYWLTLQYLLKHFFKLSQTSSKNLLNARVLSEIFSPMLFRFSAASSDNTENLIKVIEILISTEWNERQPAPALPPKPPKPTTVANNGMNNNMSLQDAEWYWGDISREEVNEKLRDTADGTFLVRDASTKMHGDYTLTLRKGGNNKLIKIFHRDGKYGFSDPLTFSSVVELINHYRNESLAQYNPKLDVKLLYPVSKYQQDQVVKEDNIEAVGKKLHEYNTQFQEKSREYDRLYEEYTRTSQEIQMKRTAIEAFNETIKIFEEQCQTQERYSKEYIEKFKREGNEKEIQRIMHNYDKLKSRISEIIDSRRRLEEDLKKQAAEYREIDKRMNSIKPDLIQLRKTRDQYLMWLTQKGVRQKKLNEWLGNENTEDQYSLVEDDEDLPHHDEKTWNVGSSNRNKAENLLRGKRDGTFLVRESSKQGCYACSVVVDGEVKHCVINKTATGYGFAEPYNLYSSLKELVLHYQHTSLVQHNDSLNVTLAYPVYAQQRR
Sequence of PI3-kinase p110-alpha/p85-alpha (P42336 whole entry): as the sequence (P42336 whole entry, canonical isoform) above
Sequence of PI3K p110 beta/p85 alpha (P27986 whole entry, canonical isoform): as the sequence (P27986 whole entry) above
Sequence of PI3K p110 beta/p85 alpha (P42338 whole entry, canonical isoform): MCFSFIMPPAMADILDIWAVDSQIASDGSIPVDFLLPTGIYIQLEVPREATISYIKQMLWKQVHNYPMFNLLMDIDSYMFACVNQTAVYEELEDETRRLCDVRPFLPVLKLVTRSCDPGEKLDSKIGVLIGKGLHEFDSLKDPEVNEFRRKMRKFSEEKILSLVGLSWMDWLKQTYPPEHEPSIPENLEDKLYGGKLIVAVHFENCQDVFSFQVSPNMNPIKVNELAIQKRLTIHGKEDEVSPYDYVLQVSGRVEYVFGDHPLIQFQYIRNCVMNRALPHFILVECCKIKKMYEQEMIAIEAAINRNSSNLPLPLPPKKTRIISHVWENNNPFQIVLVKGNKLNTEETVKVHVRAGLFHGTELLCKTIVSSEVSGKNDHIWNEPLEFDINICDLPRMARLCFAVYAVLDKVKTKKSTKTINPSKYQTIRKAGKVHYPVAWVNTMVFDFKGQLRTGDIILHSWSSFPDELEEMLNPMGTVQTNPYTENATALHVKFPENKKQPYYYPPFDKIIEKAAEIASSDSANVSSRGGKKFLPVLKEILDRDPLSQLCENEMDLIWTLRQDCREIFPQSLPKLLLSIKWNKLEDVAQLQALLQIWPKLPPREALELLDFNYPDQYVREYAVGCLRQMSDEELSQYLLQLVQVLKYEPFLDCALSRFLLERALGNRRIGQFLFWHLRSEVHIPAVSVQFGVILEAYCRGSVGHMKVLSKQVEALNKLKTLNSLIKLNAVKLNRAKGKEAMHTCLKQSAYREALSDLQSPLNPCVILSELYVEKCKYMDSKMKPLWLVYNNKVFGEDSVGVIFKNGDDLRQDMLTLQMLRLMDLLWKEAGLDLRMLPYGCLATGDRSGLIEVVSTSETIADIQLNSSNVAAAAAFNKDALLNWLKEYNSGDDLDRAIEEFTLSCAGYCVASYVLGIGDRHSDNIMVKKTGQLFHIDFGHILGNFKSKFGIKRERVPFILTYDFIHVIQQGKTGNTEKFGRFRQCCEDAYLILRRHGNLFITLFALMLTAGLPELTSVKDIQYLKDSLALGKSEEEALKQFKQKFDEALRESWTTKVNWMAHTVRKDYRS
Sequence of PI3-kinase p110-delta/p85-alpha (P27986 whole entry, canonical isoform): as the sequence (P27986 whole entry) above
Sequence of PI3-kinase p110-delta/p85-alpha (O00329 whole entry, canonical isoform): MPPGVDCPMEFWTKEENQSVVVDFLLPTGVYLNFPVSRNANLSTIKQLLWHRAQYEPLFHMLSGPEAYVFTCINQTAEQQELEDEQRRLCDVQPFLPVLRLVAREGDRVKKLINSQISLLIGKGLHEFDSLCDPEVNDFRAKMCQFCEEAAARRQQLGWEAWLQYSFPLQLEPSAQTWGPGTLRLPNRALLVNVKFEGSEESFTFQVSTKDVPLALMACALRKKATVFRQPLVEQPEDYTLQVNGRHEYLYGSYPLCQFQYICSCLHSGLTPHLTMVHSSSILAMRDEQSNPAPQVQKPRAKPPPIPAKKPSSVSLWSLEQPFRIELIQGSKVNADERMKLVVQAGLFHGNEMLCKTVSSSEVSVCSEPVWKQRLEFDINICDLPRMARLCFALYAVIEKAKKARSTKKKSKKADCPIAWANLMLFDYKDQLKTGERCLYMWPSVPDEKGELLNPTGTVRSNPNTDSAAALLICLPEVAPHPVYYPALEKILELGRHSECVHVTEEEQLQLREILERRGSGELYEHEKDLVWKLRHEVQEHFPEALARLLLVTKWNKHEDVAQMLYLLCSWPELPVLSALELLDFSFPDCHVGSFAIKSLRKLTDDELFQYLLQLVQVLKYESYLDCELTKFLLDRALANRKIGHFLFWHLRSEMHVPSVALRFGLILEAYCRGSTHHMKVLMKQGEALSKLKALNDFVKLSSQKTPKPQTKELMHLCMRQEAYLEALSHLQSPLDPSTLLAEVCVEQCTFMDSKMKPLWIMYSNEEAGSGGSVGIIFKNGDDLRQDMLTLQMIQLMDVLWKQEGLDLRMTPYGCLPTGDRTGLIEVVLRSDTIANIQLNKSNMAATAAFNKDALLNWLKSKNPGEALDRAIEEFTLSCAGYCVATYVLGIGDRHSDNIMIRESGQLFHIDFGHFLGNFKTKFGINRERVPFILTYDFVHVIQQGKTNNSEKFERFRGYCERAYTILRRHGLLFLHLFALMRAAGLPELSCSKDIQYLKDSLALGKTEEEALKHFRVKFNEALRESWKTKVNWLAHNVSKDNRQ

Compound: CCCCS(=O)(=O)Nc1cc(-c2ccc3ncnc(NCCN(C)C)c3c2)cnc1OC
- IC50 [1]: 160 nM
- IC50 [2]: 280 nM
- IC50 [3]: 280 nM
- IC50 [4]: 480 nM
- IC50 [5]: 1320 nM
- IC50 [6]: 3240 nM
- IC50 [7]: 18500 nM
- IC50 [8]: 12600 nM
- IC50 [9]: 13.6 nM
- IC50 [10]: 396 nM
- IC50 [11]: 117 nM
- IC50 [12]: 102 nM
- inhibition [13]: Active
- inhibition [14]: Active
- inhibition [15]: Active
- inhibition [16]: Active
- Activity [17]: 3.57%
- Activity [18]: 46.16%
- Activity [19]: 10.3%
- Activity [20]: 20.53%
- Activity [21]: 2.91%
- Activity [22]: 54.1%
- Activity [23]: 13.02%
- Activity [24]: 15.33%
- Activity [25]: 2.51%
- Activity [26]: 61.01%
- Activity [27]: 13.65%
- Activity [28]: 10.99%
- viability at 1 µM [29]: 85.5%
- Activity [30]: 10.13%
- Activity [31]: 2.89%
- Activity [32]: 1.5%
- viability at 2 µM [33]: 84.7%
- Activity [34]: 10.2%
- Activity [35]: 3.7%
- Activity [36]: 1.39%
- viability at 4 µM [37]: 83.3%
- Activity [38]: 11.11%
- Activity [39]: 4.6%
- Activity [40]: 1.02%
- Activity [41]: Active
- Activity [42]: Active
- Activity [43]: Active
- inhibition [44]: Dose-dependent effect
- inhibition [45]: Dose-dependent effect
- Activity [46]: Active
- Activity [47]: Active
- Activity [48]: Active
- Activity [49]: Active
- Activity [50]: Active
- Activity [51]: Active

Compound: COc1ncc(-c2ccc3ncnc(NCCN(C)C)c3c2)cc1NS(=O)(=O)c1ccc(F)cc1F
- IC50 [1]: 1440 nM
- IC50 [2]: 4720 nM
- IC50 [3]: 710 nM
- IC50 [4]: 620 nM
- IC50 [5]: 940 nM
- IC50 [6]: 1020 nM

Compound: COc1ncc(-c2ccc3ncnc(NCCN(C)C)c3c2)cc1NS(C)(=O)=O
- IC50 [1]: 13500 nM
- IC50 [2]: 12600 nM
- IC50 [3]: 2320 nM
- IC50 [4]: 410 nM
- IC50 [5]: 4120 nM
- IC50 [6]: 14700 nM

Reference: ChEMBL document CHEMBL4219088, “Novel 4-aminoquinazoline derivatives induce growth inhibition, cell cycle arrest and apoptosis via PI3Kα inhibition” (Bioorg Med Chem, 2018)
